For 27 compounds, IC50 results are on record in patent publication US12358915B2, “METTL3 inhibitory compounds” (STORM THERAPEUTICS LTD., priority 2019, dated 2025).

pIC50: −log10 of the molar value. Where two headings read alike, the source gives them in different places.

One experiment has as its system MOLM-13 cells. The experiment can be described thus: MOLM13 CTG - analysis of cell proliferation (Cell Titre Glo). To be noted: Homo sapiens, geometric mean, read-out: CTG MOLM13 cells IC50 GEOMEAN. It counts as cell-based.
Another experiment addresses T1, METTL3/14 (Homo sapiens, UniProt Q86U44).
T1 construct: The enzyme used was full-length his-tagged METTL3; His; made in house
Nature of the experiment: METTL3/14 methyltransferase assay (METTL3_14 RFMS, RapidFire mass spectrometry).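 Further: recombinant His-tagged METTL3 with FLAG-tagged METTL14 from baculovirus, SAH product quantified by mass spectrometry against isotope-labelled internal standards, 60 min at room temperature, scaled between no-RNA and DMSO-only wells.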 It counts as biochemical. The following applies: read-out: METTL3_14 RFMS IC50.

[1] abbreviates: 5 nM METTL3/14, 0.2 μM RNA substrate, 0.5 μM SAM, lower limit of the assay IC50=5 nM, Compounds 63-265.
[2] abbreviates: 5 nM METTL3/14, 0.2 μM RNA substrate, 0.5 μM SAM, lower limit of the assay IC50=5 nM, Compounds 266-351.

T1 sequence (Q86U44 whole entry): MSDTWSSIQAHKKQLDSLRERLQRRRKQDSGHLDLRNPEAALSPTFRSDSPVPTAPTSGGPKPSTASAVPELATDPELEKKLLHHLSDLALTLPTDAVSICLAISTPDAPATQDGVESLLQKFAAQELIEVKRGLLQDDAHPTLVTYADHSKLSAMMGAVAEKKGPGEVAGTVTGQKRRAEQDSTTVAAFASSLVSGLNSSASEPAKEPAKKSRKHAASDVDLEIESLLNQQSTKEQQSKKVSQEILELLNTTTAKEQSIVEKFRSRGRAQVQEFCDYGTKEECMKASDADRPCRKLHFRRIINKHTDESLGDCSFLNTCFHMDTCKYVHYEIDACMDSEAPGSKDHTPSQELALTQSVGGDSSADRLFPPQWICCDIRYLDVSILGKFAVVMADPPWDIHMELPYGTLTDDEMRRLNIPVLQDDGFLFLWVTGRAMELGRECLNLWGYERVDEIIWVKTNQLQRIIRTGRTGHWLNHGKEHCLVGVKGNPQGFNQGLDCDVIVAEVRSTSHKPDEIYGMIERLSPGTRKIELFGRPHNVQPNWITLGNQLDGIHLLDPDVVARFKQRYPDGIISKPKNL
T1 sequence (Q9HCE5 whole entry partner): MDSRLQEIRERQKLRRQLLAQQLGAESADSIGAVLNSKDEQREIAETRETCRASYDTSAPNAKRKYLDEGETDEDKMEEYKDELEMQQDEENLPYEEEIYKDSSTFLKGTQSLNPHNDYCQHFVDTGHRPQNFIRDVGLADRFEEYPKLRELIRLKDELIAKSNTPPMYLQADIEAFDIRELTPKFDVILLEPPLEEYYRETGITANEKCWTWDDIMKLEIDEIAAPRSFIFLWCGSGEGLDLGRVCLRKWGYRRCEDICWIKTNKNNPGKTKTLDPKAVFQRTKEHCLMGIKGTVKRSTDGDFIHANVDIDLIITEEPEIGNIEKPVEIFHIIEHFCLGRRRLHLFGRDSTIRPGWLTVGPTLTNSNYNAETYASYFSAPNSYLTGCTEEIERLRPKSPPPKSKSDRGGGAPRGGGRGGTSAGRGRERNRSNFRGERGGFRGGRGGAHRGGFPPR
Procedure for METTL3/14: The enzyme used was full-length his-tagged METTL3 co-expressed with full length FLAG-tagged METTL14 in a baculovirus expression system. […] After termination, plates were sealed, centrifuged and stored at 4° C. until analysis. […] Mass Spectrometry Analysis RNA methyltransferase activity was measured label free using the RapidFireTM mass spectrometry (RF/MS) platform. Stopped and stable assay plates were analyzed on the Agilent RF300 integrated autosampler/solid-phase extraction (SPE) system coupled to an ABSciex 4000 mass spectrometer for the generation of the product S-adenosyl homocysteine (SAH) and normalized to the ratio of signal of the two internal product standards, respectively. Solvent A was water containing 0.1% (v/v) TCA. Solvent B was acetonitrile/0.1% ammonium acetate (8:2, v/v). More specifically, plates were centrifuged at 4350 rpm for 10 min, samples were aspirated under vacuum for 600 ms, then loaded onto a C18 solid-phase extraction cartridge and washed for 3 s with solvent A at a flow rate of 1.5 mL/min. Retained product and internal standards were eluted with solvent B at a flow rate of 1 mL/min for 3 s and finally the cartridge was reequilibrated with solvent A for 500 ms.
Procedure for MOLM-13 cells: MOLM-13 or MOLM-14 cells were plated, in suspension, in 24 well tissue culture plates at final concentration of 200,000/ml, with or without 50 ng/ml IFNγ. […] Cells were incubated for 4 days at 37° C. at which point 600 μl of cell suspension was removed for Mass spectrometry analysis of m6A. 600 μl of fresh media containing the appropriate concentration of METTL3 inhibitor/IFNγ was added to remaining cell suspensions. Cells where then cultured for a further 7 days, cell suspension was sampled for analysis of proliferation and Cell surface markers periodically.
At regular time points (4, 5, 6 &7) days cells were mixed to maintain a homogenous cell suspension. 25 μl of this cell suspension was removed and added to a white 384 well plate, 25 μl of Cell Titre Glo reagent (Promega) was added, and incubated for 10 mins at room temperature before measurement of luminescence intensity, as per the manufacturers instructions.

By pIC50 is commonly meant the IC50 on a negative log10 scale, so that one unit is a factor of ten. With `c1cc(-c2cn(Cc3cn4cc(CNCC5CCCCC5)ccc4n3)nn2)c2cn[nH]c2c1` [Compound 248, (cyclohexylmethyl)[(2-{[4-(1H-indazol-4-yl)-1H-1,2,3-triazol-1-yl]methyl}imidazo[1,2-a]pyridin-6-yl)methyl]amine], the pIC50 in the experiment with MOLM-13 cells was 5.72; at METTL3/14 (setting [1]), 7.90.

`COC1(CNCc2ccc3nc(CNC(=O)c4cc(=O)n5ccccc5n4)cn3c2)CCC1` [Compound 273, N-[[6-[[(1-methoxycyclobutyl)methylamino]methyl]imidazo[1,2-a]pyridin-2-yl]methyl]-4-oxo-pyrido[1,2-a]pyrimidine-2-carboxamide]: the pIC50 is 5.04 with MOLM-13 cells and 7.56 at METTL3/14 (setting [2]).

On to `O=C(NCc1cn2cc(CNCC3CC4(CC4)C3)ccc2n1)c1cc(=O)n2ccccc2n1` [Compound 278, 4-oxo-N-[[6-[(spiro[2.3]hexan-5-ylmethylamino)methyl]imidazo[1,2-a]pyridin-2-yl]methyl]pyrido[1,2-a]pyrimidine-2-carboxamide], for which the results for the pIC50 in the experiment with MOLM-13 cells and on METTL3/14 (setting [2]) were not above 4.52 and 7.56, respectively.

For `O=C(NCc1cn2cc(CNC3CC34CCC4)ccc2n1)c1cc(=O)n2ccccc2n1` (stereo not drawn) [Compound 280, 4-oxo-N-[[6-[(spiro[2.3]hexan-2-ylamino)methyl]imidazo[1,2-a]pyridin-2-yl]methyl]pyrido[1,2-a]pyrimidine-2-carboxamide], the pIC50 is 5.35 in the experiment with MOLM-13 cells and 7.88 at METTL3/14 (setting [2]).

`COC(C)(C)CNCc1ccc2nc(CNC(=O)c3cc(=O)n4ccccc4n3)cn2c1` [Compound 281, N-[[6-[[(2-methoxy-2-methyl-propyl)amino]methyl]imidazo[1,2-a]pyridin-2-yl]methyl]-4-oxo-pyrido[1,2-a]pyrimidine-2-carboxamide]: the pIC50 in the experiment with MOLM-13 cells is not above 4.52; at METTL3/14 (setting [2]), 7.01.

As for `CC1(CNCc2ccc3nc(CNC(=O)c4cc(=O)n5ccccc5n4)cn3c2)CCC1` [Compound 282, N-[[6-[[(1-methylcyclobutyl)methylamino]methyl]imidazo[1,2-a]pyridin-2-yl]methyl]-4-oxo-pyrido[1,2-a]pyrimidine-2-carboxamide], the pIC50 in the experiment with MOLM-13 cells is 5.47; on METTL3/14 (setting [2]), 7.97.

On to `CCCCNCc1ccc2nc(CNC(=O)c3cc(=O)n4ccccc4n3)cn2c1` [Compound 283, N-[[6-(butylaminomethyl)imidazo[1,2-a]pyridin-2-yl]methyl]-4-oxo-pyrido[1,2-a]pyrimidine-2-carboxamide], for which the pIC50 is 4.97 with MOLM-13 cells and 7.53 at METTL3/14 (setting [2]).

For the compound `O=C(NCc1cn2cc(CNCC3(O)CCCC3)ccc2n1)c1cc(=O)n2ccccc2n1` [Compound 284, N-[[6-[[(1-hydroxycyclopentyl)methylamino]methyl]imidazo[1,2-a]pyridin-2-yl]methyl]-4-oxo-pyrido[1,2-a]pyrimidine-2-carboxamide], the results for the pIC50 with MOLM-13 cells and at METTL3/14 (setting [2]) were 5.13 and 7.94, respectively.

For the compound `CCC(C)CNCc1ccc2nc(CNC(=O)c3cc(=O)n4ccccc4n3)cn2c1` (stereo not drawn) [Compound 285, N-[[6-[(2-methylbutylamino)methyl]imidazo[1,2-a]pyridin-2-yl]methyl]-4-oxo-pyrido[1,2-a]pyrimidine-2-carboxamide], the pIC50 with MOLM-13 cells was 5.13; at METTL3/14 (setting [2]), 7.82.

Take `O=C(NCc1cn2cc(CNCCC3CCC3)ccc2n1)c1cc(=O)n2ccccc2n1` [Compound 286, N-[[6-[(2-cyclobutylethylamino)methyl]imidazo[1,2-a]pyridin-2-yl]methyl]-4-oxo-pyrido[1,2-a]pyrimidine-2-carboxamide]: the pIC50 with MOLM-13 cells was 4.91; on METTL3/14 (setting [2]), 7.71.

Consider `CC(C)(O)CNCc1ccc2nc(CNC(=O)c3cc(=O)n4ccccc4n3)cn2c1` [Compound 287, N-[[6-[[(2-hydroxy-2-methyl-propyl)amino]methyl]imidazo[1,2-a]pyridin-2-yl]methyl]-4-oxo-pyrido[1,2-a]pyrimidine-2-carboxamide], for which the negative-log IC50 (pIC50) is not above 4.52 with MOLM-13 cells and 7.16 on METTL3/14 (setting [2]).

As for `O=C(NCc1cn2cc(CNCC3(O)CCC3)ccc2n1)c1cc(=O)n2ccccc2n1` [Compound 288, N-[[6-[[(1-hydroxycyclobutyl)methylamino]methyl]imidazo[1,2-a]pyridin-2-yl]methyl]-4-oxo-pyrido[1,2-a]pyrimidine-2-carboxamide], the pIC50 with MOLM-13 cells is 5.14; at METTL3/14 (setting [2]), 7.86.

As to `CC1CC(CNCc2ccc3nc(CNC(=O)c4cc(=O)n5ccccc5n4)cn3c2)C1` (stereo not drawn) [Compound 290, N-[[6-[[(3-methylcyclobutyl)methylamino]methyl]imidazo[1,2-a]pyridin-2-yl]methyl]-4-oxo-pyrido[1,2-a]pyrimidine-2-carboxamide], the pIC50 with MOLM-13 cells is 5.16; on METTL3/14 (setting [2]), 7.75.

Consider `CCC(C)(C)CNCc1ccc2nc(CNC(=O)c3cc(=O)n4ccccc4n3)cn2c1` [Compound 292, N-[[6-[(2,2-dimethylbutylamino)methyl]imidazo[1,2-a]pyridin-2-yl]methyl]-4-oxo-pyrido[1,2-a]pyrimidine-2-carboxamide], for which the pIC50 is 5.14 in the experiment with MOLM-13 cells and 7.70 at METTL3/14 (setting [2]).

On to `CC[C@H](C)CNCc1ccc2nc(CNC(=O)c3cc(=O)n4ccccc4n3)cn2c1` [Compound 293, N-[[6-[[[(2S)-2-methylbutyl]amino]methyl]imidazo[1,2-a]pyridin-2-yl]methyl]-4-oxo-pyrido[1,2-a]pyrimidine-2-carboxamide], for which the pIC50 is 5.33 in the experiment on MOLM-13 cells and 7.89 on METTL3/14 (setting [2]).

Turning to `CC(C)(C)CNCc1ccc2nc(Cn3cc(-c4cc(Br)cc5[nH]ncc45)nn3)cn2c1` [Example 225, [(2-{[4-(6-bromo-1H-indazol-4-yl)-1H-1,2,3-triazol-1-yl]methyl}imidazo[1,2-a]pyridin-6-yl)methyl](2,2-dimethylpropyl)amine], the pIC50 in the experiment on MOLM-13 cells was 6.19; on METTL3/14 (setting [1]), 8.17.

On to `Brc1cc(-c2cn(Cc3cn4cc(CNCC5CCCCC5)ccc4n3)nn2)c2cn[nH]c2c1` [Example 226, [(2-{[4-(6-bromo-1H-indazol-4-yl)-1H-1,2,3-triazol-1-yl]methyl}imidazo[1,2-a]pyridin-6-yl)methyl](cyclohexylmethyl)amine], for which the pIC50 in the experiment with MOLM-13 cells is 5.83; on METTL3/14 (setting [1]) it was 8.09.

For the compound `CC(C)(C)CNCc1ccc2nc(Cn3cc(-c4cccc5[nH]ncc45)nn3)cn2c1` [Example 250, (2,2-dimethylpropyl)[(2-{[4-(1H-indazol-4-yl)-1H-1,2,3-triazol-1-yl]methyl}imidazo[1,2-a]pyridin-6-yl)methyl]amine], the figures for the pIC50 with MOLM-13 cells and at METTL3/14 (setting [1]) were 5.52 and 7.95, respectively.

As for `CC1(C)CCN(Cc2ccc3nc(Cn4cc(-c5cccc6[nH]ncc56)nn4)cn3c2)CC1` [Example 251, 4-[1-({6-[(4,4-dimethylpiperidin-1-yl)methyl]imidazo[1,2-a]pyridin-2-yl}methyl)-1H-1,2,3-triazol-4-yl]-1H-indazole], the pIC50 in the experiment with MOLM-13 cells is 6.14; at METTL3/14 (setting [1]), 8.24.

For `FC1(F)CC(CNCc2ccc3nc(Cn4cc(-c5cc(Br)cc6[nH]ncc56)nn4)cn3c2)C1` [Example 252, [(2-{[4-(6-bromo-1H-indazol-4-yl)-1H-1,2,3-triazol-1-yl]methyl}imidazo[1,2-a]pyridin-6-yl)methyl][(3,3-difluorocyclobutyl)methyl]amine], the figures for the pIC50 in the experiment on MOLM-13 cells and on METTL3/14 (setting [1]) were 6.15 and 8.10, respectively.

On to `OCc1ccc2nc(Cn3cc(-c4cc(Br)cc5[nH]ncc45)nn3)cn2c1` [Example 253, (2-{[4-(6-bromo-1H-indazol-4-yl)-1H-1,2,3-triazol-1-yl]methyl}imidazo[1,2-a]pyridin-6-yl)methanol], for which the pIC50 in the experiment with MOLM-13 cells is 5.55; on METTL3/14 (setting [1]) it was 6.68.

In the case of `CC(C)(C)CNCc1ccc2nc(Cn3cc(-c4ccc5[nH]ncc5c4)nn3)cn2c1` [Example 254, (2,2-dimethylpropyl)[(2-{[4-(1H-indazol-5-yl)-1H-1,2,3-triazol-1-yl]methyl}imidazo[1,2-a]pyridin-6-yl)methyl]amine], the pIC50 in the experiment on MOLM-13 cells is not above 4.52; on METTL3/14 it was 5.00.

On to `CC(NCC1CCCCC1)c1ccc2nc(Cn3cc(-c4cccc5[nH]ncc45)nn3)cn2c1` (stereo not drawn) [Example 255], for which the figures for the pIC50 with MOLM-13 cells and at METTL3/14 (setting [1]) were 5.02 and 7.59, respectively.

In the case of `O=C(NCc1cn2cc(C3COCCN3)ccc2n1)c1cc(=O)n2ccccc2n1` (stereo not drawn) [Example 263, N-{[6-(morpholin-3-yl)imidazo[1,2-a]pyridin-2-yl]methyl}-4-oxo-4H-pyrido[1,2-a]pyrimidine-2-carboxamide], the pIC50 in the experiment on MOLM-13 cells is 4.86; at METTL3/14 (setting [1]) it was 5.56.

For the compound `Oc1cc(-c2cn(Cc3cn4cc(CNCC5CCC5)ccc4n3)nn2)c2cn[nH]c2c1` [Example 266, 4-[1-[[6-[(cyclobutylmethylamino)methyl]imidazo[1,2-a]pyridin-2-yl]methyl]triazol-4-yl]-1H-indazol-6-ol], the pIC50 in the experiment on MOLM-13 cells was 4.95; on METTL3/14 it was not below 8.37.

Consider `Oc1cc(-c2cn(Cc3cn4cc(CNCC5(O)CCC5)ccc4n3)nn2)c2cn[nH]c2c1` [Example 267, 4-[1-[[6-[[(1-hydroxycyclobutyl)methylamino]methyl]imidazo[1,2-a]pyridin-2-yl]methyl]triazol-4-yl]-1H-indazol-6-ol], for which the negative-log IC50 (pIC50) was not above 4.52 in the experiment with MOLM-13 cells and 8.16 at METTL3/14 (setting [2]).

With `COc1ccc2[nH]ncc2c1-c1cn(Cc2cn3cc(CNCC4(O)CCC4)ccc3n2)nn1` [Example 268, 1-[[[2-[[4-(5-methoxy-1H-indazol-4-yl)triazol-1-yl]methyl]imidazo[1,2-a]pyridin-6-yl]methylamino]methyl]cyclobutanol], the pIC50 with MOLM-13 cells was 5.27; on METTL3/14 (setting [2]), 7.97.
